Results on one compound are retold here after paper PMC4605326 (Nucleic Acids Research, 2015).

For this experiment, the system named is BsPif1. The conditions noted are these: 50 nM enzyme; 67-mer ss oligonucleotide 25 μg/ml; 25 mM Tris-HCl pH 7.5, 50 mM NaCl, 2 mM MgCl2, 2 mM DTT; 37°C.

Take `Nc1ncnc2c1ncn2[C@@H]1O[C@H](COP(=O)(O)OP(=O)(O)OP(=O)(O)O)[C@@H](O)[C@H]1O` [ATP]: the Michaelis-Menten constant (Km) came to 0.2 µM.

By Km is commonly meant the substrate concentration at which the rate is half of its maximum.
